The values that follow are results of earlier work, collected in US10265268B2, “External composition for screen foamers” (POLA PHARMA INC., priority 2014, dated 2019).

The conditions of the series: surfactants from NIKKOL / suitable examples.
With “Polyethylene glycol monostearate (40 E.O.)”, the HLB is given as 17.5.
On to Polyoxyethylene (10) cetyl ether, for which the HLB is recorded as 13.5.
As to Polyoxyethylene (20) behenyl ether, the HLB is 16.5.
`CCCCCCCCCCCCCCCCCC(=O)OCC(O)CO` (centres unmarked) [Glyceryl monostearate]: the HLB is given as 4.0.
Turning to “Polyoxyethylene (20) polyoxypropylene (8) cetyl ether”, the HLB was 12.5.
